System: mock-infected MT-4 cells
Experiment: Compound toxicity in mock-infected MT-4 cells (WST-1 assay)
Format: cell-based
Settings: four days incubation, read-out: TC50 (concentration of compound that results in death of 50% of the host cells)
Description: The HTLV-1 transformed T cell line, MT-4, is highly susceptible to HIV-1 infection. Anti-HIV-1 agents were evaluated in this target cell line by protection from the HIV-induced cytopathic effect. In this assay, viability of both HIV-1 and mock-infected cells was assessed in a […] assay that monitors the ability of metabolically-active cells to reduce the tetrazolium salt WST-1. Cytoprotection by antiviral compounds is indicated by the positive readout of increased WST-1 cleavage.
Briefly, exponentially growing MT-4 cells were mock-infected or batch-infected with the HIV-1 laboratory strain, NL4-3, at a multiplicity of infection of 0.0005. Following a two hour infection, the cells were washed to remove unbound virus and plated in the presence of increasing concentrations of compound. After four days incubation, cytoprotection in the infected cells and compound toxicity in mock-infected cells were analyzed using the WST-1 assay.

Compound | CC50 [µM]
C=C(C)[C@@H]1CC[C@]2(C(=O)NCc3ccc(C(=O)O)cc3)CC[C@]3(C)[C@H](CC[C@@H]4[C@@]5(C)CC[C@H](OC(=O)CC(C)(C)C(=O)O)C(C)(C)[C@@H]5CC[C@]43C)[C@@H]12 [Compound 37] | ~7.7
C=C(C)[C@@H]1CC[C@]2(C(=O)NCc3ccccc3C(=O)O)CC[C@]3(C)[C@H](CC[C@@H]4[C@@]5(C)CC[C@H](OC(=O)CC(C)(C)C(=O)O)C(C)(C)[C@@H]5CC[C@]43C)[C@@H]12 [Compound 39] | ~6.3

— patent US20090149429A1, “ANTIVIRAL COMPOUNDS” (Myriad Genetics, Incorporated, priority 2005, published 2009)
